The subject of series [1] is B. anthracis spores. The following applies: in vivo.
For series [2], the system named is RAW 264.7 cells. It is filed as cell-based, mouse.
The subject of series [3] is RAW 264.7 cells. It is filed as cell-based, mouse. This is another data set of the same source.
The test system of series [4] is RAW 264.7 cells. It is filed as cell-based, mouse. This is another data set of the same source.
For series [5], the system named is Fas expression in RAW 264.7 cells. It is filed as cell-based, mouse.
The conditions of series [6]: mouse, in vivo, ip; cited from earlier work.
For series [7], the system named is RAW 264.7 cells. The format is cell-based, mouse. The source holds these as a separate data set.
For series [8], the system named is RAW 264.7 cells infected with anthrax (Sterne) spores. It is filed as cell-based, mouse.
Series [9] deals with human PBMCs infected with anthrax (Sterne) spores. It is filed as cell-based.
In series [10] the test system is B. anthracis spores. The following applies: in vivo. This is another data set of the same source.
For series [11], the system named is anthrax (Sterne) spores. The arrangement: species or system B. anthracis.
Series [12] deals with RAW 264.7 cells. The format is cell-based, mouse. The source holds these as a separate data set.
In series [13] the test system is RAW 264.7 cells. It is filed as cell-based, mouse. The following applies: 4 h.
Series [14] concerns human peripheral blood monocytes / PBMCs. The format is cell-based.

Values joined by “and” are separate entries in the source; they are usually repeats but may differ in a detail not shown here. Identical values can stand only once. “Also recorded” adds a separate entry of the source. Residues, ends and D or L forms follow the SMILES beside them. *: point of attachment. Cbz = O=C(OCc1ccccc1)*; CH2F = FC*

In the case of `COC(=O)C[C@H](NC(=O)[C@H](C)NC(=O)[C@@H](NC(=O)OCc1ccccc1)C(C)C)C(=O)CF` [Z-VAD-fmk, benzyloxycarbonyl-Val-Ala-Asp-fluoromethylketone] (Cbz-Val-Ala-Asp(OMe)-CH2F), the “survival of mice” value in series [1] is on record as “dead by 11 days”. Besides, in series [1] (ip), the “mice alive by day 15” value came out at 20%; the “mice survived by day 15” value is 20% and 10%.
With `COC(=O)CC[C@H](NC(=O)[C@H](CC(C)C)NC(=O)OCc1ccccc1)C(=O)N[C@@H](Cc1cnc[nH]1)C(=O)N[C@@H](CC(=O)OC)C(=O)CF` [inhibitor of caspase-9, Z-LEHD-FMK] (Cbz-LE(OMe)HD(OMe)-CH2F), in series [2], the “protection of cells against LeTx (membrane permeability staining)” value (“protection of cells against LeTx” below) was “unable to protect”.
“GM-CSF: recombinant murine granulocyte-macrophage colony stimulating factor”: in series [3], the “overall cell survival and relative number of apoptotic cells in presence of LeTx” value is listed as “substantially increased”; the “prevention of LeTx-induced apoptosis” value is “incapable of preventing apoptosis completely”; the “protection of Raw 264.7 cells from LeTx” value is given as “partially protected”. The “effect of murine cytokine on cell lysis by LeTx” value (“effect of murine cytokine” below) in [4] is “increased cell survival”. Further, the “Fas expression after stimulation with cytokine” value (from here on “Fas expression after stimulation”) in [5] is given as “greatly increased”. Besides, the “mice survived after 24 days” value in series [1] (ip) is 20%. For the same molecule, the toxicity in mice result in [6] is “No toxicity”.
On to `COc1cccc(-c2cc(=O)c3ccccc3o2)c1N` [PD 98059], for which, in series [7], the “antitoxin effect (cell survival, MTT)” value is on record as “did not display an antitoxin effect; also recorded: do not increase cell survival; also recorded: none of these inhibitors increased cell survival”.
As to `CO/C1=C\C(C)=C\[C@@H](C)[C@@H](O)[C@@H](C)C/C(C)=C/C=C/[C@H](OC)[C@@H]([C@@H](C)[C@@H](O)[C@H](C)[C@@]2(O)C[C@@H](O)[C@H](C)[C@@H](C(C)C)O2)OC1=O` [bafilomycin A1], the “survival of mice” value in [1] is reported as “dead by 11 days”.
With `COC(=O)C[C@H](NC(=O)[C@H](C)NC(=O)[C@@H](NC(=O)[C@H](CC(=O)OC)NC(=O)[C@@H](NC(=O)OCc1ccccc1)C(C)C)C(C)C)C(=O)CF` [inhibitor of caspase 2, Z-VDVAD-FMK] (Cbz-VD(OMe)VAD(OMe)-CH2F), the “protection of cells against LeTx” value in [2] was “different degree of protection”.
With `CC(C)C[C@H](NC(=O)[C@@H](O)[C@H](N)Cc1ccccc1)C(=O)O` [bestatin], the “bactericidal activity of Raw 264.7 cells” value in series [8] was “restores a bactericidal activity”. Also, the “killing (bactericidal) activity of human PBMCs” value in series [9] was “increased in a concentration dependent manner; also recorded: restores a bactericidal activity”. In addition, the “survival of mice” value in series [1] is “dead by 11 days”. Further, the “mice dead by day 9” value in [10] was “more than 30%”. In addition, in series [11], the intrinsic antibiotic activity result is “undetectable”.
As for `COc1ccc(CCN(C)CCCC(C#N)(c2ccc(OC)c(OC)c2)C(C)C)cc1OC` (stereo not drawn) [verapamil], the “survival of mice” value in series [1] is “dead by 11 days”.
For the molecule TNF-α, in [4], the “effect of murine cytokine” value is “greatly increased cell lysis”. The “Fas expression after stimulation” value in [5] is given as “greatly increased”.
As to `COC(=O)CC[C@H](NC(=O)[C@H](CC(=O)OC)NC(=O)OCc1ccccc1)C(=O)N[C@H](C(=O)N[C@@H](CC(=O)OC)C(=O)CF)C(C)C` [inhibitor of caspase 3, Z-DEVD-FMK], the “protection of cells against LeTx” value in series [2] is listed as “different degree of protection”.
On to `NC[C@@H]1O[C@H](O[C@H]2[C@@H](O)[C@H](O[C@@H]3[C@@H](O)[C@H](N)C[C@H](N)[C@H]3O[C@H]3O[C@H](CN)[C@@H](O)[C@H](O)[C@H]3N)O[C@@H]2CO)[C@H](N)[C@@H](O)[C@@H]1O` [neomycin], for which the “mice alive after 11 days” value in series [1] worked out at 100%. Moreover, the “survival of mice after 10 days” value in series [10] is listed as “less than 20%”.
In the case of `COC(=O)CC[C@H](NC(=O)[C@H](Cc1c[nH]c2ccccc12)NC(=O)OCc1ccccc1)C(=O)N[C@@H](Cc1cnc[nH]1)C(=O)N[C@@H](CC(=O)OC)C(=O)CF` [inhibitor of caspase 1, Z-WEHD-FMK] (Cbz-WE(OMe)HD(OMe)-CH2F), the “protection of cells against LeTx” value in [2] is reported as “different degree of protection”.
With IL-6: cytokine, in [12], the “cell viability relative to cells treated with toxin only (MTT)” value is on record as “increased cell viability”.
With `CC[C@H](C)[C@H](NC(=O)[C@H](CCC(=O)OC)NC(=O)[C@@H](NC(=O)OCc1ccccc1)C(C)C)C(=O)N[C@@H](CC(=O)OC)C(=O)CF` [inhibitor of caspase 6, Z-VEID-FMK] (Cbz-VE(OMe)ID(OMe)-CH2F), the “protection of cells against LeTx” value in series [2] is given as “most active”.
Take `O=C(O)c1cn(C2CC2)c2cc(N3CCNCC3)c(F)cc2c1=O` [ciprofloxacin]: in series [1], the “mice alive after 11 days” value was found to be 100%, the “mice survived at least 14 days” value was determined as 100%, the “protection of mice (FIG. 29)” value is given as “complete protection” and the “survival (FIG. 29)” value stood at 10%. In [10], the “mice alive after 15 days” value is “approximately 50%” and the “survival of mice by day 12” value is recorded as 50%.
On to `CN[C@@H]1C[C@H]2O[C@@](C)([C@@H]1OC)n1c3ccccc3c3c4c(c5c6ccccc6n2c5c31)C(=O)NC4` [staurosporine], for which the “mitochondrial transmembrane potential (JC-1 staining)” value in series [13] is “JC-1 staining changes similar to LeTx”. In [14], the “fluorescence pattern (YO-PRO-1) of human monocytes” value is reported as “fluorescence pattern typical of apoptotic cells”.
As for `C[S+]([O-])c1ccc(-c2nc(-c3ccncc3)c(-c3ccc(F)cc3)[nH]2)cc1` (stereo not drawn) [SB 203580], in series [7], the “antitoxin effect (cell survival, MTT)” value is given as “not able to decrease the effect of LeTx; also recorded: do not increase cell survival; also recorded: none of these inhibitors increased cell survival”.
With `CCN(CC)CCCC(C)Nc1ccnc2cc(Cl)ccc12` (stereo not drawn) [chloroquine], the “survival of mice” value in series [1] was “dead by 11 days”.
For the molecule `CC[C@H](C)[C@H](NC(=O)OCc1ccccc1)C(=O)N[C@@H](CCC(=O)OC)C(=O)N[C@H](C(=O)N[C@@H](CC(=O)OC)C(=O)CF)[C@@H](C)O` [inhibitor of caspase 8, Z-IETD-FMK] (Cbz-IE(OMe)TD(OMe)-CH2F), the “protection of cells against LeTx” value in series [2] is “most active”.
Same read-out and setting: for Z-YVAD [inhibitor of caspase 4] the value was “most active”.
Consider trypsin, for which, in series [1], the “survival of mice” value is on record as “dead by 11 days”.

B1: IFN-γ: recombinant mouse interferon-gamma (protein, UniProt P01579 24-161, looked up)
Interferon gamma: QDPYVKEAENLKKYFNAGHSDVADNGTLFLGILKNWKEESDRKIMQSQIVSFYFKLFKNFKDDQSIQKSVETIKEDMNVKFFNSNKKKRDDFEKLTNYSVTDLNVQRKAIHELIQVMAELSPAAKTGKRKRSQMLFRG
Take B1: in series [4], the “effect of murine cytokine” value is “increased cell susceptibility to lysis”. In addition, in series [5], the “Fas expression after stimulation” value is “greatly increased”.

B2: IL-4: cytokine (protein, UniProt P05112 25-153, looked up)
Interleukin-4: HKCDITLQEIIKTLNSLTEQKTLCTELTVTDIFAASKNTTEKETFCRAATVLRQFYSHHEKDTRCLGATAQQFHRHKQLIRFLKRLDRNLWGLAGLNSCPVKEANQSTLENFLERLKTIMREKYSKCSS
On to B2, for which the “cell viability relative to cells treated with toxin only (MTT)” value in series [12] is given as “increased cell viability”.

B3: IL-12: murine interleukin-12 (protein, UniProt P29459 23-219; P29460 23-328, looked up)
Interleukin-12 subunit alpha: RNLPVATPDPGMFPCLHHSQNLLRAVSNMLQKARQTLEFYPCTSEEIDHEDITKDKTSTVEACLPLELTKNESCLNSRETSFITNGSCLASRKTSFMMALCLSSIYEDLKMYQVEFKTMNAKLLMDPKRQIFLDQNMLAVIDELMQALNFNSETVPQKSSLEEPDFYKTKIKLCILLHAFRIRAVTIDRVMSYLNAS
Interleukin-12 subunit beta: IWELKKDVYVVELDWYPDAPGEMVVLTCDTPEEDGITWTLDQSSEVLGSGKTLTIQVKEFGDAGQYTCHKGGEVLSHSLLLLHKKEDGIWSTDILKDQKEPKNKTFLRCEAKNYSGRFTCWWLTTISTDLTFSVKSSRGSSDPQGVTCGAATLSAERVRGDNKEYEYSVECQEDSACPAAEESLPIEVMVDAVHKLKYENYTSSFFIRDIIKPDPPKNLQLKPLKNSRQVEVSWEYPDTWSTPHSYFSLTFCVQVQGKSKREKKDRVFTDKTSATVICRKNASISVRAQDRYYSSSWSEWASVPCS
As for B3, the “effect of murine cytokine” value in series [4] is given as “without effect”.

(Values after US20030224403A1 (priority 2002, published 2003).)
